pIC50: −log10 of the molar value. Values after ≈ are worked out from the molar mass of the structure shown. “Also recorded” adds a separate entry of the source. Where a name gives a salt, the structure may show the parent alone.
Key:
C3A cells = assay: Intracellular CoA and metabolite levels in C3A cells; format: cell-based, human
Procedure: HEK293T cells (ATCC, #CRL-3216) were maintained in Dulbecco’s modified Eagle’s medium (DMEM, Biowhittaker/Lonza) supplemented with 10% FCS. Human C3A [HepG2/C3A, derivative of HepG2] cells (ATCC #CRL-10741) were purchased from ATCC® and maintained in Eagle’s minimum Essential medium (ATCC) supplemented with 2 mM glutamine, 10% fetal bovine serum (FCS, Altanta Biologicals), 50 U/ml penicillin and […] streptomycin. Both cell lines were confirmed to be mycoplasma-free. […]. […] After 24 h of treatment (total 48 h after transfection) the cells were washed with PBS and harvested and subjected to either total CoA or acetyl-CoA determinations.
Prior to labeling, cells were seeded at a density of 2–3 × 10^6 in 60 mm-dishes in reconstituted DMEM without added pantothenate and allowed to adhere overnight. The labeling was initiated by replacing the medium with 2 ml of labeling medium containing 0.1% dimethylsulfoxide (DMSO; control) or 10 μM of the compound in 0.1% DMSO. Cells were incubated for 24 h, the labeling medium was removed, and cells were washed with phosphate buffered saline and lysed by sonication in 20 mM Tris-HCl, pH 7.5, 2 mM DTT, 5 mM EDTA and 50 mM NaF. The lysates were fractionated by thin-layer chromatography after removal of the cell debris by centrifugation. The samples were spotted on Silica Gel H plates and resolved with 95% ethanol:28% ammonium hydroxide (4/1, v/v). The distribution of radioactivity on the plate was quantified using a Bioscan Imager (Bioscan, Inc.) together with quantification of the total cellular radioactivity determined by a Liquid Scintillation Analyzer (PerkinElmer Tri-Carb 2910 TR). Triplicate culture dishes were labeled for each group plus a dish for each group for determination of cell counts and viability using a Nucleocounter (New Brunswick Scientific) according to the manufacturer’s directions. The experiments were repeated twice in duplicate and the data represented is an overall average ± SEM.
Cultured cells or frozen tissues were resuspended in 2 ml cold water to which 500 μl of 0.25 M KOH was added, derivatized with monobromobimane (mBBr, Life technologies) and quantified by HPLC[23]. For acetyl-CoA determinations, C3A cells were resuspended in 1 ml water, added to 2 ml of methanol and 1 ml chloroform, and incubated on ice for 15 min. Chloroform 1.5 ml, 1.2 ml water and 30 pmol of [^13C2]acetyl-CoA (Sigma) was added, and centrifuged at 2000×g for 10 min. The top layer was loaded on a 2-(2-pyridyl) ethyl solid phase extraction column which was equilibrated with 1 ml 50% methanol/2% acetic acid. The column was washed twice with 1 ml 50% methanol/2% acetic acid and 1 ml water. CoA and thioesters were eluted twice with 1 ml 95% ethanol containing 50 mM ammonium hydroxide. Samples were resuspended in 90% methanol containing 15 mM ammonium hydroxide.
The mBBr derivatized sample was fractionated by reverse-phase HPLC using a Gemini C18 3 μm column (150 × 4.60 mm) from Phenomenex. The chromatography system was a Waters e2695 separation module with a UV/Vis and fluorescence detector and controlled by Empower 3 software. Solvent A was 50 mM potassium phosphate pH 4.6, and solvent B was 100% acetonitrile. Twenty microliters of sample was injected onto the column, and the flow rate was 0.5 ml/min. The HPLC program was the following: starting solvent mixture of 90% A/10% B, 0–2 min isocratic with 10% B, 2–6 min linear gradient from 10% B to 15% B, 6–18 min concave gradient from 15% B to 40% B, 18–23 min isocratic with 40% B, 23–25 min linear gradient from 40 to 10%, and 25–30 min isocratic with 10% B. The UV/vis detector was set at 393 nm, and the fluorescence detector was set with excitation at 393 nm and emission at 470 nm. […]

[1] = Tissue pantothenate levels in mice; format: in vivo; conditions: C57Bl6/J, mouse, liver; 200 mg/kg pantothenate by oral gavage, 4 h after last of 5 doses; read-out: calculated intracellular pantothenate concentration in liver
Procedure: Plasma (10 μl) was added to 800 μl methanol and 190 μl water along with 200 pmol (β-alanyl-^13C3^15N)-pantothenate (^13C^15N-Pan, Sigma). Tissue (30–40 mg) was homogenized in 2 ml of 80% methanol, and 500 pmol of ^13C^15N-Pan was added. The samples were incubated at −80 °C for 4 h. Samples were spun at 3500xg for 10 min to pellet debris, and supernatant was transferred to a new tube and dried using a SpeedVac overnight. Samples were resuspended in water + 0.1% formic acid and spun through a Spin-X Centrifuge Tube Filter (0.22 μm Cellulose Acetate, Costar).
Pantothenate was analyzed using a Shimadzu Prominence UFLC attached to a QTrap 4500 equipped with a Turbo V ion source (Sciex). Samples were injected onto an XSelect® HSS C18, 2.5 μm, 2.1 × 150 mm column using a flow rate of 0.2 ml/min. Solvent A was 0.1% formic acid in water, and Solvent B was acetonitrile + 0.1% formic acid. […] The MRM transition for pantothenate was 220.0 / 184.1 m/z and [^13C^15N]pantothenate was 224.0 / 188.1 m/z both with a declustering potential, 35 V and collision energy, 22 V. The system was controlled by the Analyst® software (Sciex) and analyzed with MultiQuant™ 3.0.2 software (Sciex). Intracellular pantothenate was measured as pmoles/mg wet weight.

Plasma stability [2] = format: in vitro ADME; conditions: mouse, read-out: Plasma Stability T1/2
Plasma stability [3] = format: in vitro ADME; conditions: rat, read-out: Plasma Stability T1/2 (converted)
Plasma stability [4] = format: in vitro ADME; conditions: human, read-out: Plasma Stability T1/2
PAMPA-BBB = format: in vitro ADME; conditions: BBB = Blood Brain Barrier, read-out: PAMPA-BBB, Avg Pe
Protein binding [5] = conditions: rat
Microsomal stability [6] = conditions: mouse, microsomes
Microsomal stability [7] = conditions: rat, microsomes
Microsomal stability [8] = conditions: human, microsomes
human PANK3 = biological target: T1, human PANK3 (Homo sapiens, UniProt Q9H999); assay: PANK activity assay (radiochemical, without acetyl-CoA); format: biochemical
T1 construct: His; made in house
Procedure: The assay was linear with time and after 10 min at 37 °C the reaction was stopped by the addition of 4 μl of 10% (v/v) acetic acid. […] All the experiments were repeated twice in duplicate and the data were an average ± data range.
The IC50 values for the structure–activity study were calculated by fitting the inhibition data to a one-site model of the Michaelis–Menten equation. […] (GraphPad software) that accounts for the impact of enzyme-inhibitor binding on the free concentration of inhibitor.

Caco2 permeability = format: in vitro ADME; conditions: human, Caco-2; read-out: Caco2 Permeability Efflux Ratio (B2A/A2B)
HEK293T cells = assay: Intracellular CoA levels in transfected HEK293T cells; format: cell-based, human; conditions: 10 μM, 24 h
Procedure: Chloroform 1.5 ml, 1.2 ml water and 30 pmol of [^13C2]acetyl-CoA (Sigma) was added, and centrifuged at 2000×g for 10 min. The top layer was loaded on a 2-(2-pyridyl) ethyl solid phase extraction column which was equilibrated with 1 ml 50% methanol/2% acetic acid. The column was washed twice with 1 ml 50% methanol/2% acetic acid and 1 ml water. […] Samples were resuspended in 90% methanol containing 15 mM ammonium hydroxide.

Protein binding [9] = conditions: mouse
Protein binding [10] = conditions: human

T1 sequence (Q9H999 whole entry): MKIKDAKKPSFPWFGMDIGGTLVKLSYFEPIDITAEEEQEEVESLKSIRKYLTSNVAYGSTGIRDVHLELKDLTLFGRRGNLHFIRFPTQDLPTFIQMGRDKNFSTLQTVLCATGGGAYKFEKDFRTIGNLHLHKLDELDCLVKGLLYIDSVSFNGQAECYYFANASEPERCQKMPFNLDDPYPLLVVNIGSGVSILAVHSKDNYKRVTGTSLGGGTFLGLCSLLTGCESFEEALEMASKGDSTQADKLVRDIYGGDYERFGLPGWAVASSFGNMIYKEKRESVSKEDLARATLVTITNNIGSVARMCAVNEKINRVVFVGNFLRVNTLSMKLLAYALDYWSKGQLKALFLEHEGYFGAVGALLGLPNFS

SMILES	CoA content of C3A cells on varying pantothenate in medium (C3A cells; pantothenate alone, without PZ-2891)	concentration at 4 h [1]	solubility (Solubility at pH 7.4)	half-life (Plasma stability [2])	half-life (Plasma stability [3])	half-life (Plasma stability [4])	Papp (PAMPA-BBB)	PAMPA; Avg Pe (PAMPA)	fraction unbound (Protein binding [5])	half-life (Microsomal stability [6])	half-life (Microsomal stability [7])	half-life (Microsomal stability [8])	pIC50 (human PANK3)	inhibition of PANK3 (in words) (human PANK3; negative control)	efflux ratio (Caco2 permeability)	total intracellular CoA levels in C3A cells (C3A cells; 24 h, increasing concentrations (20 and 50 μM less activating))	intracellular CoA, PANK3 overexpressing HEK293T cells (HEK293T cells)	fraction unbound (Protein binding [9])	fraction unbound (Protein binding [10])
CC(C)(CO)[C@@H](O)C(=O)NCCC(=O)O [pantothenate, D-pantothenic acid, hemicalcium salt]	no effect on CoA content	24.4 µM																	
CC(C)c1ccc(CC(=O)N2CCN(c3ccc(C#N)cn3)CC2)cc1 [PZ-2863]			25 µM (≈ 8.71 µg/mL)																
CC(C)(C)c1ccc(NC(=O)N2CCN(c3ccc(C#N)cn3)CC2)cc1 [PZ-2789, N-(4-(tert-butyl)phenyl)-4-(5-cyanopyridin-2-yl)piperazine-1-carboxamide]			1.4 µM (≈ 0.509 µg/mL)	> 50 h	> 50 h	> 50 h	303 ×10⁻⁶ cm/s	1232 10-6 cm/s	0.02	15.6 min	30.6 min	7.8 min							
CC(C)c1ccc(C(=O)CN2CCN(c3ccc(C#N)nn3)CC2)cc1 [PZ-3067, 6-(4-(2-(4-isopropylphenyl)-2-oxoethyl)piperazin-1-yl)pyridazine-3-carbonitrile]			18 µM (≈ 6.29 µg/mL)	> 50 h	27 h	> 50 h	0.8 ×10⁻⁶ cm/s	204 10-6 cm/s	0.1	30.6 min	13.2 min	9 min	< 4.00	no effect; also recorded: Inactive	0.5	did not respond	inactive	0.04	0.04
